In brackets after ≈: the same amount, converted by molar mass.
Key:
[1] = test system: GCT27 testicular cancer cells; assay: Cell survival, single agent; format: cell-based
Method: (§1) Cell survival was determined by CCK-8 viability assay and/or clonogenic survival assay in 96 well plates or 24 well plates, respectively and combination index (CI) analysis of drug-drug interactions determined by Chou-Talalay analysis as we have previously described. • 1) CCK-8 metabolic assay: Cells were plated (2500 cells/well) in 96-well plate and allowed to grow for at least 18 hours in at 37° C. in the presence of 5% CO2 before treatment with inhibitor for 48 hours. CCK-8 solution (Dojindo) was added to 10% of the total media volume and after 1-4 hours of incubation absorbance at 450 nm was determined using BioTek® Synergy™ H1 hybrid multi-mode microplate reader • 2) Clonogenic survival assay: Cells were plated in a 24 well (20,000 cells/well) plate, incubated for at least 18 hours and then treated with inhibitor. […] Images of the stained colonies were captured with a Fuji LAS-3000 CCD system then counted using OpenCFU software. Viability is determined as a percent of vehicle controls and plotted versus drug concentration. • 3) Assessment of synergy via combination index (CI): In the combination index studies, cells (H460 or SKGT4) were treated with RPA inhibitor and Pt/etoposide/bleomycin/taxol/DDR inhibitor alone as well as the combination of both—the inhibitor and the DNA damaging chemotherapeutic agent/DDR inhibitor. […]

[2] = test system: A2780 epithelial ovarian cancer (EOC) cells; assay: Cell survival, single agent; format: cell-based
Method: as §1

[3] = test system: sonicated salmon sperm DNA; assay: Fluorescent intercalator displacement (FID) assay, SYBR-Green; format: binding; conditions: 25 mM MOPS pH 6.5
Summary of the method: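 Displacement of SYBR-Green from sonicated salmon sperm DNA (8.29 ng/μL) in 25 mM MOPS pH 6.5 with compound at indicated concentrations; doxorubicin positive control. Fluorescence (Ex 485/Em 528 nm) read within 5 min of incubation.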

[4] = test system: SKGT-4 EAC cells; assay: Combination index (Chou-Talalay), CCK-8 assay; format: cell-based
Method: Cell survival was determined by CCK-8 viability assay and/or clonogenic survival assay in 96 well plates or 24 well plates, respectively and combination index (CI) analysis of drug-drug interactions determined by Chou-Talalay analysis as we have previously described. • 1) CCK-8 metabolic assay: Cells were plated (2500 cells/well) in 96-well plate and allowed to grow for at least 18 hours in at 37° C. in the presence of 5% CO2 before treatment with inhibitor for 48 hours. CCK-8 solution (Dojindo) was added to 10% of the total media volume and after 1-4 hours of incubation absorbance at 450 nm was determined using BioTek® Synergy™ H1 hybrid multi-mode microplate reader • 2) Clonogenic survival assay: Cells were plated in a 24 well (20,000 cells/well) plate, incubated for at least 18 hours and then treated with inhibitor. After 48 hours of treatment, the cells are re-plated in 10 cm dishes (500 cells/dish) and incubated for 8-10 days to allow colony formation. Plates are washed with PBS, fixed with glutaraldehyde and stained with crystal violet. Images of the stained colonies were captured with a Fuji LAS-3000 CCD system then counted using OpenCFU software. Viability is determined as a percent of vehicle controls and plotted versus drug concentration. • 3) Assessment of synergy via combination index (CI): In the combination index studies, cells (H460 or SKGT4) were treated with RPA inhibitor and Pt/etoposide/bleomycin/taxol/DDR inhibitor alone as well as the combination of both—the inhibitor and the DNA damaging chemotherapeutic agent/DDR inhibitor. The range of treatment was dependent on the IC50 of each inhibitor/drug. If the IC50 was X, then the cells were treated at a range of 0.04× to 5× concentration in a CCK-8 metabolic assay. The kill curves from both the single agent treatments as well as the combination treatment were used in a Chou-Talalay based method to determine the combination index (CI) at different fractions of cells affected.^40 A CI>1.0 indicates antagonism between the two agents, while a CI<1.0 indicates synergy.
Inhibiting RPA can act synergistically with DNA damaging therapeutics including cisplatin and etoposide (FIG. 4C). In these studies, we used the Chou-Talalay method, which provides a combination index (CI) that quantifies synergistic activity for each drug combination. […] The synergistic activity of compounds described herein with DNA damaging agents may be explained by RPA's role in the DNA damage response and signaling.

[5] = Aqueous solubility in unbuffered water; format: physicochemical; conditions: 43, 44, 45, 46, 47 vs 9, 16, 26, 28, 29 respectively
Method: (§2) Aqueous solubility was determined by suspending compound in un-buffered water with stirring. Insoluble material was removed by sedimentation or filtration and soluble compound quantified by absorbance spectroscopy and LC/MS. pH dependence was determined by suspending compound in 10 mM citrate buffer at pH 4.0 or 10 mM phosphate […] as described above in the description.
(§3) The morpholine ring is commonly introduced into solvent exposed regions as a privileged solubilizing group to improve solubility or pharmacokinetic properties including metabolic stability of a prospective drug scaffold which is exemplified by many FDA approved drugs. Modifications on Ring A had less of an effect than the morpholino modifications at the alkyl carboxylic acid side chain. To determine the effect of pH on solubility, we prepared solution at 1 mM in citrate buffer at pH 4, phosphate buffer at pH 7 and carbonate buffer at pH 9.5.

[6] = test system: H460 cells; assay: Caspase 3/7 activation (CellEvent Caspase-3/7 Green); format: cell-based; conditions: 24 hours treatment
Method: Apoptosis induction was determined by activation of Caspase 3 and 7 using the CellEvent™ Caspase-3/7 Green Detection Reagent (Invitrogen). H460 cells were plated at […] in black 96 well plates with clear bottoms (Costar) and incubated for 24 hours prior to treatments. Cells were treated with the indicated concentration of compound 43 or cisplatin for 24 hours. The vehicle (DMSO) concentration was held constant at 1% for compound 43 treatments. For caspase 3/7 detection, media was removed and replaced with PBS containing 5% FBS and 2 μM CellEvent™ Caspase-3/7 Green Detection Reagent. Cells were incubated at 37° C./5% CO2 for 1 hour and fluorescence intensity was measured in a BioTek Synergy H1 plate reader (excitation/emission 485/528). Images were captured with an Evos FL2 Auto microscope (Invitrogen) using a 10× objective.

[7] = Aqueous solubility as a function of pH; format: physicochemical; conditions: thermodynamic from solid
Method: as §2, §3

DNA binding activity (displacement of SYBR-Green intercalator) [3]: No significant DNA binding activity
aqueous solubility compared to carboxylic acid counterpart (in words) [5]: increased solubility
solubility ([7]; aqueous buffer at pH 9.5, pH 9.5, aqueous buffer): 3.62 ± 2.22 µM (≈ 2.6 µg/mL)
solubility ([7]; aqueous buffer, pH 4, citrate buffer): 21.4 ± 5.49 µM (≈ 15.4 µg/mL)
solubility ([7]; aqueous buffer, pH 7, phosphate buffer): 5.72 ± 2.79 µM (≈ 4.11 µg/mL)
SMILES: CCOc1ccc2cc(C3CC(c4ccc(I)cc4)=NN3C(=O)CCCC(=O)NCCCN3CCOCC3)c(Cl)nc2c1 (stereo not shown) [Compound 43, 5-(5-(2-Chloro-7-ethoxyquinolin-3-yl)-3-(4-iodophenyl)-4,5-dihydro-1H-pyrazol-1-yl)-N-(3-morpholinopropyl)-5-oxopentanamide]
cytotoxicity as compared to H460 NSCLC cells [1]: increased cytotoxicity
cytotoxicity as compared to H460 NSCLC cells [2]: increased cytotoxicity
synergy with PARP, DNA-PK, ATR and WEE1 inhibitors ([4]; EAC cell model, BMN637, NU7441, VE821, MK1775): effectively synergizes
combination interaction with taxol ([4]; SKGT-4 EAC cells, Chou-Talalay): additive interaction
caspase 3 and 7 activation [6]: potently activates caspase 3 and 7
